According to publication PMC12501029, “Discovery of a CNS active GSK3 degrader using orthogonally reactive linker screening” (Nature Communications, 2025):
Like-named read-outs stand apart in the source and are kept apart here.

Experiment: Discrete i.v./p.o. KH1 (24) PK study and brain penetration
Format: in vivo, female Balb/c mice
Excerpt: Fifteen female mice of the Balb/c strain were obtained from Charles River Laboratories, UK. Animals were maintained under a 12-h light/12-h dark cycle, in Thoren mouse caging containing EC0 aspen bedding (DBM, UK), with 'Sizzlenest' and 'Rodent Rolls' nesting material (DBM). Enrichment materials included aspen chew sticks, cardboard houses, tunnels, swings, and sunflower seeds. All animals had ad libitum access to food (5LF2 Extruded Diet, IPS Ltd, UK) and tap water throughout. Temperature and relative humidity were maintained between 19 °C–24 °C and 45%–65%, respectively. All animals received a minimum of 10 days of acclimatisation prior to the start of the study.
The intravenous formulations for KH1 (24) were prepared by dissolving the compound in DMSO. This was then diluted with PEG400, followed by dropwise addition of sterile water to form a complete solution. The resulting formulations consisted of 5% DMSO, 40% PEG400, and 55% water, and contained KH1 (24) at a concentration of 0.1 mg/mL (for the PK study), or 1.0 mg/mL (for the PK/PD study), respectively.
The oral formulation for KH1 (24) was produced by vigorously mixing the compound with a sterile solution containing 0.5% hydroxypropylmethylcellulose in water, until a fine homogenous suspension was formed. The resulting formulation contained KH1 (24) at a concentration of 0.6 mg/mL. Dose formulations were prepared on the day of dosing, and animals were observed regularly after dose administration.
[…] Serial blood samples (10 µL per sample) were collected from the lateral tail vein of three intravenously-dosed mice and three orally-dosed mice at 5, 15 and 30 min, 1, 2, 4, 6, 8, and 24 h after dose administration. Blood samples were diluted into 90 µL of Milli‑Q ultrapure water. The remaining three intravenously-dosed animals were placed under terminal anaesthesia with isoflurane, 2 h after bolus administration. Blood was collected via cardiac puncture and the brains were removed. Two aliquots of 10 µL blood were each diluted into 90 µL of Milli-Q ultrapure water. All blood samples were stored at −20 °C prior to bioanalysis. The concentration of KH1 (24) in blood and brain was determined by UPLC-MS/MS.
Blood samples (10 µL) from study mice were diluted 1× with 90 µL of water immediately when the sample was taken. All calibration, quality control, blanks and double blank samples (all 100 µL volume) were mixed (vortexed) with 300 µL of LCMS grade acetonitrile to precipitate proteins.
For study samples, a volume (30 µL) was mixed (vortexed) with a volume (90 µL) of acetonitrile to precipitate proteins. After protein precipitation, all samples were centrifuged to pellet the proteins. Study samples in Micronics tubes were centrifuged using a Beckman Coutler Allegra C-12R Centrifuge for 10 min at 3750 rpm. All other samples in Eppendorf tubes were centrifuged using a Sigma SciQuip 1–14 centrifuge for 10 min (14,800 rpm/16,163 × g). Supernatant from study samples (80 µL) and calibration samples, QCs, blanks, and double blanks (200 µL) were then transferred to HPLC glass vials containing Milli-Q water (40 µL or 100 µL, respectively), ready for LCMS analysis.

[1] = female, Balb/c, mouse, whole blood, Oral, 3 mg/kg

In the case of `Cn1nc(N2CCC(=O)NC2=O)c2ccc(CN3CCN(Cc4ccc(-c5cn(-c6ccc(-c7cn8nccc(C(=O)Nc9cnccc9N9CCOCC9)c8n7)cc6)nn5)nc4)CC3)cc21` [compound 24], the Half_Life (IV, 0.37 mg/kg) is reported as 2.3 h, the Vss_obs (IV, 0.37 mg/kg) is reported as 2.0 L/kg and the concentration at 2 h (female, Balb/c, mouse, brain (unbound), intravenous, 0.37 mg/kg, predicted from brain concentration and measured free fraction, read-out: free concentration in brain) is reported as 0.02 nM. It also gave a Kp uu at 2 h (female, Balb/c, mouse, brain / plasma (unbound), iv, 0.37 mg/kg i.v., 2 h, read-out: estimated Kp,uu) of 0.05, a Kp at 2 h (female, Balb/c, mouse, brain / whole blood, intravenous, 0.37 mg/kg i.v., 2 hours, read-out: Brain:Blood Ratio) of 0.18 and a concentration at 2 h (female, Balb/c, mouse, brain, intravenous, 0.37 mg/kg i.v., 2 hours, read-out: Mean Brain Concentration) of 16 nM. It also gave a concentration at 2 h (female, Balb/c, mouse, plasma (unbound), intravenous, 2 h, 0.37 mg/kg, using predicted free fractions, read-out: unbound total plasma concentration) of 0.4 to 0.9 nM, a concentration at 2 h (female, Balb/c, mouse, whole blood, intravenous, 0.37 mg/kg i.v., 2 hours, read-out: Mean Blood Concentration) of 88 nM and an AUC(0-t) (female, Balb/c, mouse, whole blood, iv, 0.37 mg/kg) of 572 ng·h/mL. The clearance (female, Balb/c, mouse, whole blood, iv, 0.37 mg/kg, read-out: Cl_obs) was 10 mL/min/kg, the AUC(0-t) [1] was 82.2 ng·h/mL and the Cmax [1] was 19 ng/mL. For the same compound, the Tmax [1] was 2 h, the bioavailability (female, Balb/c, mouse, whole blood, Oral, 3 mg/kg, read-out: F (oral bioavailability)) was 1.6% and the “total mean plasma concentration” value (for up to 4 h following i.v. dosing at 0.37 mg/kg) was “above 65 nM”.
